Results: patent publication US20240310368A1, “DETECTION KIT FOR CATECHOLAMINES AND METABOLITES THEREOF IN PLASMA/URINE AND DETECTION METHOD THEREOF” (Calibra Scientific, Inc., priority 2023, published 2024)
“And” between values parts separate entries of the source, which are not always exact repeats. Equal values may be shown once.

Columns and labels:
[1] = Acceleration test of plasma samples with stabilizers (30° C. for 1.5 days, against control plasma stored at −95° C. to −65° C.), LC-MS/MS Area/IS Area
Experimental: Samples were collected in EDTA-anticoagulant blood collection tubes and then rapidly subjected to […] centrifugation at 2-8° C. to separate plasma. 0.95 mL of the plasma was transferred into centrifuge tubes. After 50 μL of the stabilizer was added for uniform mixing, the plasma samples were stored by refrigeration or freezing.
• (1) 500 μL of plasma/urine samples to be tested were taken, and 50 μL of the internal standard solution and 500 μL of the buffer solution were sequentially added for vertex mixing to obtain diluted samples. • (2) The magnetic medium composite material suspension was subjected to full vortex treatment to reach a suspension state, and then subsequent operation was performed. • (3) Different reagents were added into wells of a preprocessing plate according to the follow operation: adding 200 μL of the magnetic medium composite material suspension in column 1, adding 500 μL of the balance solution in column 2, adding 850 μL of the diluted samples in column 3, adding 500 μL of the balance solution in column 4, adding 200 μL of a rinsing solution in column 5, and adding 100 μL of the elution solution in column 6. • (4) An extraction operation procedure was carried out, as shown in Table 5.
Each group of the plasma samples were stored at 30° C. for 1.5 days, and plasma without addition of any compounds stored at −95° C. to −65° C. was used as a control. […] The stabilizing effect of the single-component stabilizers on the plasma samples was investigated.
The stabilizers were mixed with plasma (the volume ratio of the stabilizers to plasma samples was 1:19), and high concentration plasma samples and low concentration plasma samples were prepared by the method provided in Example 1.
With plasma stored at −95° C. to −65° C. as a control, the above plasma samples were separately stored at 30° C. for 1.5 days to investigate the stability. […]

[2] = Stability of ascorbic acid and glutathione in stabilizers accelerated at 37° C. for 14 days against an unaccelerated stabilizer; format: physicochemical; conditions: for stability of ascorbic acid and glutathione in stabilizers after acceleration: 37° C. for 14 days (equivalent to 1 year at 2-8° C.); for Relative deviation %: after acceleration at 37° C. for 14 days vs new formulations
Experimental: Stabilizers (Example 1) were accelerated at 37° C. for 14 days (equivalent to 1 year at 2-8° C.) and then compared with an unaccelerated stabilizer.

[3] = pH adjustment ability of urine diluents to standard products and urine samples (pH test papers); format: physicochemical, human; conditions: 20 μL urine + 480 μL diluent + 50 μL internal standard solution + 500 μL buffer solution
Experimental: In the present example, standard products of catecholamines in urine and urine samples from different sources (Sample 1 to Sample 6 are urine samples with different pH values) were selected to carry out an experiment. The urine samples were collected within 24 h by the method provided in Example 1, 20 μL of the urine samples were taken, 480 μL of urine diluents shown in Table 30 were added, respectively, then vortex mixing was performed, and 50 μL of an internal standard solution and 500 μL of a buffer solution were sequentially added to obtain urine samples to be tested. Then, pH test papers were used to detect whether the urine samples to be tested were neutral. The pH adjustment ability of different urine diluents to standard products and samples was investigated.
However, some samples are still acidic or alkaline. Thus, ammonium acetate was added on the basis of the formic acid, and different proportions of the formic acid and the ammonium acetate were investigated.

[4] = plasma at a high concentration level, plasma containing 50 μg/mL of the component, control plasma 0.624
[5] = plasma at a high concentration level, plasma containing 50 μg/mL of the component, control plasma 1.522
[6] = plasma at a high concentration level, plasma containing 50 μg/mL of the component, control plasma 2.27
[7] = plasma at a high concentration level, plasma containing 200 μg/mL of the component, control plasma 0.624
[8] = plasma at a high concentration level, plasma containing 200 μg/mL of the component, control plasma 1.522
[9] = plasma at a high concentration level, plasma containing 200 μg/mL of the component, control plasma 2.27
[10] = plasma at a low concentration level, plasma containing 50 μg/mL of the component, control plasma 0.079
[11] = plasma at a low concentration level, plasma containing 50 μg/mL of the component, control plasma 0.219
[12] = plasma at a low concentration level, plasma containing 50 μg/mL of the component, control plasma 0.233
[13] = plasma at a low concentration level, plasma containing 200 μg/mL of the component, control plasma 0.079
[14] = plasma at a low concentration level, plasma containing 200 μg/mL of the component, control plasma 0.219
[15] = plasma at a low concentration level, plasma containing 200 μg/mL of the component, control plasma 0.233
[16] = After acceleration (stabilizer of Example 1, 37° C. for 14 days)
[17] = New formulations (unaccelerated stabilizer of Example 1)

Ratio (Area/IS Area) E [1, 4]	Ratio (Area/IS Area) NE [1, 5]	Ratio (Area/IS Area) DA [1, 6]	Ratio (Area/IS Area) E [1, 7]	Ratio (Area/IS Area) NE [1, 8]	Ratio (Area/IS Area) DA [1, 9]	Ratio (Area/IS Area) E [1, 10]	Ratio (Area/IS Area) NE [1, 11]	Ratio (Area/IS Area) DA [1, 12]	Ratio (Area/IS Area) E [1, 13]	Ratio (Area/IS Area) NE [1, 14]	Ratio (Area/IS Area) DA [1, 15]	stability of ascorbic acid and glutathione in stabilizers after acceleration [2]	Area [2, 16]	Area [2, 17]	Relative deviation % [2] [%]	SMILES	other results
0	0	0	0.048	0	0	0	0	0	0	0	0	maintained stable	6.96E+05 and 6.32E+05 and 6.08E+05	6.88E+05 and 7.26E+05 and 6.96E+05	−8.2	O=C1O[C@H]([C@@H](O)CO)C(O)=C1O [ascorbic acid]	–
–	–	–	–	–	–	–	–	–	–	–	–	–	–	–	–	O=CO [formic acid]	Ratio (Area/IS Area) E ([1]; plasma at a high concentration level, plasma containing 0.5% of the acid, control plasma 0.624): 0.295; Ratio (Area/IS Area) NE ([1]; plasma at a high concentration level, plasma containing 0.5% of the acid, control plasma 1.522): 0; Ratio (Area/IS Area) DA ([1]; plasma at a high concentration level, plasma containing 0.5% of the acid, control plasma 2.27): 0; Ratio (Area/IS Area) E ([1]; plasma at a high concentration level, plasma containing 2.0% of the acid, control plasma 0.624): 0; Ratio (Area/IS Area) NE ([1]; plasma at a high concentration level, plasma containing 2.0% of the acid, control plasma 1.522): 0; Ratio (Area/IS Area) DA ([1]; plasma at a high concentration level, plasma containing 2.0% of the acid, control plasma 2.27): 0; Ratio (Area/IS Area) E ([1]; plasma at a low concentration level, plasma containing 0.5% of the acid, control plasma 0.079): 0; Ratio (Area/IS Area) NE ([1]; plasma at a low concentration level, plasma containing 0.5% of the acid, control plasma 0.219): 0; Ratio (Area/IS Area) DA ([1]; plasma at a low concentration level, plasma containing 0.5% of the acid, control plasma 0.233): 0; Ratio (Area/IS Area) E ([1]; plasma at a low concentration level, plasma containing 2.0% of the acid, control plasma 0.079): 0; Ratio (Area/IS Area) NE ([1]; plasma at a low concentration level, plasma containing 2.0% of the acid, control plasma 0.219): 0; Ratio (Area/IS Area) DA ([1]; plasma at a low concentration level, plasma containing 2.0% of the acid, control plasma 0.233): 0; stabilizing effect on catecholamines in plasma ([1]; single components as stabilizers): no obvious stabilizing effect; pH adjustment ability of urine diluent to standard products and samples [3]: uniformly adjust most of samples to neutral
0	0	0	0	0	0	0	0	0	0	0	0	maintained stable	7.45E+04 and 7.62E+04 and 8.98E+04	8.44E+04	−5.0	N[C@@H](CCC(=O)N[C@@H](CS)C(=O)NCC(=O)O)C(=O)O [glutathione]	–
